BindingDB's records for doi:10.1016/j.bmcl.2012.10.084 (Takeda Pharmaceutical, 2012)

Biological target: Mitogen-activated protein kinase kinase kinase 7 (TAK1) (Homo sapiens) (UniProt O43318)
Assay: Inhibition of TAK1

Mitogen-activated protein kinase kinase kinase 7 (TAK1) (Homo sapiens), sequence (O43318 whole entry, looked up): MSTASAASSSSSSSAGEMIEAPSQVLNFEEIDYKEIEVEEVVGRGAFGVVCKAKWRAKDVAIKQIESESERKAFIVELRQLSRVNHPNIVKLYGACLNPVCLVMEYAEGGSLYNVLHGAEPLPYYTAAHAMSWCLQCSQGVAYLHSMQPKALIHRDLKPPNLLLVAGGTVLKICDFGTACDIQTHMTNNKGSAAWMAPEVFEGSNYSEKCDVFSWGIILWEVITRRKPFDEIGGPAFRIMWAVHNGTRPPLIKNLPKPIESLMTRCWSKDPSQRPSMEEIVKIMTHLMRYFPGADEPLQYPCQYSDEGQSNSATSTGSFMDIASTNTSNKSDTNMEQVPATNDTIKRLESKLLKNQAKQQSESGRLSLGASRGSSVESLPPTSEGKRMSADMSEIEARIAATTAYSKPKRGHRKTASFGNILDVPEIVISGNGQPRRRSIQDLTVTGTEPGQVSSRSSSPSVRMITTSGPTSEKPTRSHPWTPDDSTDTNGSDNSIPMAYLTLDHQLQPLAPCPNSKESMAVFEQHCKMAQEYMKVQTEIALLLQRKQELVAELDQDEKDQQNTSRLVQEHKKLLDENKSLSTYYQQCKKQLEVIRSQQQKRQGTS

IC50: > 10 µM
Structure (SMILES): CC(C)(C)c1ccc(C(=O)Nc2cn3cc(-n4ccnc4)ccc3n2)cc1
